The source made the active and inactive calls. No cut-off for these calls is given here.
Columns and labels:
Cortical neurone [1] = assay: Neuroprotective activity against oxygen glucose deprivation induced ischemic stroke model in primary C57BL/6J E14-17 mouse Cortical neurons assessed as increase in cell viability at 1 uM incubated for 24 hrs by CCK-8 assay (Rvb= 57.43 +/- 2.54 %); type: functional
Cortical neurone [2] = assay: Cytotoxicity against primary C57BL/6J E14-17 mouse Cortical neuron assessed as decrease in cell viability at 1 uM incubated for 24 hrs by CCK-8 assay relative to control; type: toxicity, cell-based
Cortical neurone [3] = assay: Cytotoxicity against primary C57BL/6J E14-17 mouse Cortical neuron assessed as decrease in cell viability at 10 uM incubated for 24 hrs by CCK-8 assay relative to control; type: toxicity, cell-based
Cortical neurone [4] = assay: Neuroprotective activity against oxygen glucose deprivation induced ischemic stroke model in primary C57BL/6J E14-17 mouse Cortical neurons assessed as increase in cell viability at 10 uM incubated for 24 hrs by CCK-8 assay (Rvb= 57.43 +/- 2.54 %); type: functional
Cortical neurone [5] = assay: Neuroprotective activity against oxygen glucose deprivation induced ischemic stroke model in primary C57BL/6J E14-17 mouse Cortical neurons assessed as increase in cell viability at 0.5 to 20 uM incubated for 24 hrs by CCK-8 assay; type: functional, cell-based; conditions: dose 0.5-20 µM
Cortical neurone [6] = assay: Cytotoxicity against primary C57BL/6J E14-17 mouse Cortical neuron assessed as decrease in cell viability upto 50 uM incubated for 24 hrs by CCK-8 assay; type: toxicity, cell-based
SH-SY5Y = assay: Neuroprotective activity against oxygen glucose deprivation induced ischemic stroke model in human SH-SY5Y cells assessed as cell viability at 2 uM incubated for 24 hrs by CCK-8 assay; type: functional; conditions: read-out: Activity

Row | Structure (SMILES) | Activity (Cortical neurone [1]) | Activity (Cortical neurone [2]) | Activity (Cortical neurone [3]) | Activity (Cortical neurone [4]) | Activity (Cortical neurone [5]) | Activity (Cortical neurone [6]) | Activity (Cortical neurone [1]; 24 h, 1 µM) | Activity (Cortical neurone [4]; 24 h, 10 µM) | viability at 2 µM (SH-SY5Y)
1 | CC(=O)N[C@@H]1CC[C@@H](c2ccc(Cl)c(Cl)c2)c2ccccc21 (relative stereo) | 66.22% | 102.6% | 101.23% | 77.31% | Dose-Dependent Effect | Toxic | – | – | –
2 | O=C(CCCCl)N[C@@H]1CC[C@@H](c2ccc(Cl)c(Cl)c2)c2ccccc21 (relative stereo) | 63.86% | 92.02% | 84.35% | 58.31% | – | – | – | – | –
3 | Clc1ccc([C@@H]2CC[C@@H](NCC3CCCCC3)c3ccccc32)cc1Cl (relative stereo) | 64.56% | 100.42% | 103.51% | 62.02% | – | – | – | – | –
4 | O=C(Cc1ccccc1)N[C@@H]1CC[C@@H](c2ccc(Cl)c(Cl)c2)c2ccccc21 (relative stereo) | – | – | – | – | Active | Toxic | – | – | –
5 | CN[C@@H]1CC[C@@H](c2ccc(Cl)c(Cl)c2)c2ccccc21 (racemic) | 59.29% | 94.5% | 92.08% | 65.74% | – | – | – | – | –
6 | CN[C@H]1CC[C@@H](c2ccc(Cl)c(Cl)c2)c2ccccc21 (racemic) [SERTRALINE] | – | 96.32% | 92.98% | – | – | – | 60.36% | 45.76% | –
7 | CCCCCCCCN(C)[C@@H]1CC[C@@H](c2ccc(Cl)c(Cl)c2)c2ccccc21 (racemic) | – | – | – | – | Active | Non-Toxic | – | – | –
8 | CCCCCC(C)N[C@@H]1CC[C@@H](c2ccc(Cl)c(Cl)c2)c2ccccc21 (relative stereo) | 58.02% | 89.48% | 84.74% | 60.07% | – | – | – | – | –
9 | NCCN[C@@H]1CC[C@@H](c2ccc(Cl)c(Cl)c2)c2ccccc21 (relative stereo) | 24.79% | 103.68% | 24.73% | 3.53% | – | – | – | – | –
10 | CC(C)(C)OC(=O)N1CCN(CCN[C@@H]2CC[C@@H](c3ccc(Cl)c(Cl)c3)c3ccccc32)CC1 (relative stereo) | 63.76% | 100.27% | 93.92% | 57.97% | – | – | – | – | –
11 | CC1=NN(c2ccccc2)C(=O)C1 [EDARAVONE] | 64.39% | 98.61% | 96.6% | 64.15% | – | – | – | – | 71.3%
12 | CC(C)CN[C@@H]1CC[C@@H](c2ccc(Cl)c(Cl)c2)c2ccccc21 (relative stereo) | 56.47% | 96.1% | 73.99% | 30.22% | – | – | – | – | –
13 | Cc1cccc(CN[C@@H]2CC[C@@H](c3ccc(Cl)c(Cl)c3)c3ccccc32)c1 (relative stereo) | 65.53% | 96.85% | 102.54% | 81.18% | Dose-Dependent Effect | Toxic | – | – | –
14 | N[C@@H]1CC[C@@H](c2ccc(Cl)c(Cl)c2)c2ccccc21 (relative stereo) [DASOTRALINE] | 57.14% | 99.05% | 95.38% | 56.94% | – | – | – | – | –
15 | Clc1ccc([C@@H]2CC[C@@H](NCCCCc3ccccc3)c3ccccc32)cc1Cl (relative stereo) | 57.11% | 98.28% | 94.37% | 58.59% | – | – | – | – | –
16 | COc1ccc(CN[C@@H]2CC[C@@H](c3ccc(Cl)c(Cl)c3)c3ccccc32)cc1 (relative stereo) | 56.57% | 98.78% | 85.78% | 60.68% | – | – | – | – | –
17 | CCCCCCCCN(C)[C@H]1CC[C@@H](c2ccc(Cl)c(Cl)c2)c2ccccc21 (racemic) | – | – | – | – | Active | – | – | – | –
18 | Clc1ccc([C@@H]2CC[C@@H](NC3CC3)c3ccccc32)cc1Cl (relative stereo) | 62.49% | 100.03% | 109.93% | 66.66% | – | – | – | – | –
19 | Clc1ccc([C@@H]2CC[C@@H](NCCN3CCNCC3)c3ccccc32)cc1Cl | 56.76% | 90.76% | 31.8% | 28.28% | – | – | – | – | –
20 | CCCCCCN[C@@H]1CC[C@@H](c2ccc(Cl)c(Cl)c2)c2ccccc21 (relative stereo) | 62.38% | 98.87% | 113.14% | 81.04% | Dose-Dependent Effect | Toxic | – | – | –
21 | COc1ccc(CN[C@@H]2CC[C@@H](c3ccc(Cl)c(Cl)c3)c3ccccc32)cc1OC (relative stereo) | 62.06% | 99.79% | 95.48% | 66.65% | Dose-Dependent Effect | Toxic | – | – | –

Row | Structure (SMILES) | Activity (Cortical neurone [1]) | Activity (Cortical neurone [2]) | Activity (Cortical neurone [3]) | Activity (Cortical neurone [4]) | Activity (Cortical neurone [5]) | Activity (Cortical neurone [6]) | Activity (Cortical neurone [1]; 24 h, 1 µM) | Activity (Cortical neurone [4]; 24 h, 10 µM) | viability at 2 µM (SH-SY5Y)
22 | C=CCC(=O)N[C@@H]1CC[C@@H](c2ccc(Cl)c(Cl)c2)c2ccccc21 (relative stereo) | – | – | – | – | Active | Toxic | – | – | –
23 | Clc1ccc([C@@H]2CC[C@@H](N3CCCC3)c3ccccc32)cc1Cl (relative stereo) | – | – | – | – | Active | Toxic | – | – | –
24 | CN(C)[C@H]1CC[C@@H](c2ccc(Cl)c(Cl)c2)c2ccccc21 | – | – | – | – | Active | Non-Toxic | – | – | –
25 | Clc1ccc([C@@H]2CC[C@@H](NCc3cccc4ccccc34)c3ccccc32)cc1Cl (relative stereo) | 61.36% | 95.27% | 96.52% | 65.01% | – | – | – | – | –
26 | CCCN[C@@H]1CC[C@@H](c2ccc(Cl)c(Cl)c2)c2ccccc21 (relative stereo) | 62.89% | 96.43% | 100.55% | 55.53% | – | – | – | – | –
27 | Clc1ccc([C@@H]2CC[C@@H](NC3CCCCC3)c3ccccc32)cc1Cl (relative stereo) | 61.62% | 97.01% | 102.77% | 69.46% | Dose-Dependent Effect | Toxic | – | – | –
28 | NCCCCCCN[C@@H]1CC[C@@H](c2ccc(Cl)c(Cl)c2)c2ccccc21 (relative stereo) | – | 48.84% | 22.62% | 3.43% | – | – | – | – | –
29 | COc1cccc(CN[C@@H]2CC[C@@H](c3ccc(Cl)c(Cl)c3)c3ccccc32)c1 (relative stereo) | 51.08% | 95.52% | 97.09% | 47.87% | – | – | – | – | –
30 | CC(C)(C)OC(=O)NCCN[C@@H]1CC[C@@H](c2ccc(Cl)c(Cl)c2)c2ccccc21 (relative stereo) | 58.81% | 98.85% | 94.48% | 54.41% | – | – | – | – | –
31 | NCCCCN[C@@H]1CC[C@@H](c2ccc(Cl)c(Cl)c2)c2ccccc21 (relative stereo) | 33.3% | 90.11% | 22.9% | 3.07% | – | – | – | – | –
32 | FC(F)(F)c1cccc(CN[C@@H]2CC[C@@H](c3ccc(Cl)c(Cl)c3)c3ccccc32)c1 (relative stereo) | 65.74% | 90.68% | 85.87% | 59% | – | – | – | – | –
33 | CC(N[C@@H]1CC[C@@H](c2ccc(Cl)c(Cl)c2)c2ccccc21)c1ccccc1 (stereo partly specified) | 45.67% | 98.48% | 45.32% | 51.75% | – | – | – | – | –
34 | CC(C)(C)c1ccc(CN[C@@H]2CC[C@@H](c3ccc(Cl)c(Cl)c3)c3ccccc32)cc1 (relative stereo) | 56.78% | 93.91% | 93.23% | 60.98% | – | – | – | – | –
35 | Clc1ccc(CN[C@@H]2CC[C@@H](c3ccc(Cl)c(Cl)c3)c3ccccc32)cc1Cl | 58.46% | 101.08% | 105.41% | 55.64% | – | – | – | – | –
36 | CN[C@H]1CC[C@@H](c2ccc(Cl)c(Cl)c2)c2ccccc21 | – | – | – | – | Active | – | – | – | –
37 | Clc1ccc([C@@H]2CC[C@@H](NCCc3c[nH]c4ccccc34)c3ccccc32)cc1Cl (relative stereo) | 52.97% | 104.13% | 96.14% | 59.42% | – | – | – | – | –
38 | Clc1ccc([C@@H]2CC[C@@H](NCc3ccc4c(c3)OCO4)c3ccccc32)cc1Cl (relative stereo) | 63.19% | 104.95% | 95.94% | 57.62% | – | – | – | – | –
39 | CCCC(=O)N[C@@H]1CC[C@@H](c2ccc(Cl)c(Cl)c2)c2ccccc21 (relative stereo) | – | – | – | – | Active | Toxic | – | – | –
40 | CCCCN[C@@H]1CC[C@@H](c2ccc(Cl)c(Cl)c2)c2ccccc21 (relative stereo) | 54.27% | 95.75% | 94.94% | 50.99% | – | – | – | – | –
41 | Cc1ccc(CN[C@@H]2CC[C@@H](c3ccc(Cl)c(Cl)c3)c3ccccc32)cc1 (relative stereo) | 60.9% | 92.92% | 84.46% | 59.01% | – | – | – | – | –

Source: ChEMBL document CHEMBL5360547 (Eur J Med Chem, 2023)
